Laboratory results reported in US20090311217A1, “3-SUBSTITUTED-1H-INDOLE COMPOUNDS, THEIR USE AS MTOR KINASE AND PI3 KINASE INHIBITORS, AND THEIR SYNTHESES” (priority 2008, published 2009).
pIC50: −log10 of the molar value. Read-outs that look alike come from different tables or passages of the source.

What was measured:
Format in all cases: biochemical
PI3K-delta = PI3K-delta (Homo sapiens, UniProt O00329); experiment: PI3K-delta fluorescence polarization assay
PI3K-alpha = PI3K-alpha (Homo sapiens, UniProt P42336); experiment: PI3K-alpha fluorescence polarization assay
PI3K-alpha, sequence (P42336 whole entry, species assumed): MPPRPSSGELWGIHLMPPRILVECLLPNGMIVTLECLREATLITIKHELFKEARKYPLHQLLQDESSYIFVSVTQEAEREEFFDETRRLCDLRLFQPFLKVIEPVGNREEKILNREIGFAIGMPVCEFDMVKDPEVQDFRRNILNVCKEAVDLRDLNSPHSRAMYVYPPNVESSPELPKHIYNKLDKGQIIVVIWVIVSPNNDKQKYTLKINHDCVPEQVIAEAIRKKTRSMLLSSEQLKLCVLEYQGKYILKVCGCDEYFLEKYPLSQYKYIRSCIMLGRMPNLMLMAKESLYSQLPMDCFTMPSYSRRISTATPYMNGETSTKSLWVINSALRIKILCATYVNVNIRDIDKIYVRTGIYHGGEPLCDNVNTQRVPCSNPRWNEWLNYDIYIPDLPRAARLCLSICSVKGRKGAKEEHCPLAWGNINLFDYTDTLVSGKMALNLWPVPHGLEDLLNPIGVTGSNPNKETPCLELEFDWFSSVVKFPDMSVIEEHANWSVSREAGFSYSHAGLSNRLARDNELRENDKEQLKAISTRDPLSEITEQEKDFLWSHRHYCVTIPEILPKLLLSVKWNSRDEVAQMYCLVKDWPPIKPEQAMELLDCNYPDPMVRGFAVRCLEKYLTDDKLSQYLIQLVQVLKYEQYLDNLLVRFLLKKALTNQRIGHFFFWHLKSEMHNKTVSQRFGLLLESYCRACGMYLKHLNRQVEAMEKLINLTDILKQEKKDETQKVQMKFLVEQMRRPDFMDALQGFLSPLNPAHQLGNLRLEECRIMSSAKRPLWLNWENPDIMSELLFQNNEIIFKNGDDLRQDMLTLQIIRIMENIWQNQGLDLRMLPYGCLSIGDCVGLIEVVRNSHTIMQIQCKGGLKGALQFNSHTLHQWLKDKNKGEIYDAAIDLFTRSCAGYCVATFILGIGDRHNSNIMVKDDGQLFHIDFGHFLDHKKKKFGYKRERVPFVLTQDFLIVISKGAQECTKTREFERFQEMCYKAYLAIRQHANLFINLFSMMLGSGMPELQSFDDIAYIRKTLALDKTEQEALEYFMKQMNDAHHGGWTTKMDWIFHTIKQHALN
PI3K-alpha, sequence (P27986 whole entry partner, species assumed): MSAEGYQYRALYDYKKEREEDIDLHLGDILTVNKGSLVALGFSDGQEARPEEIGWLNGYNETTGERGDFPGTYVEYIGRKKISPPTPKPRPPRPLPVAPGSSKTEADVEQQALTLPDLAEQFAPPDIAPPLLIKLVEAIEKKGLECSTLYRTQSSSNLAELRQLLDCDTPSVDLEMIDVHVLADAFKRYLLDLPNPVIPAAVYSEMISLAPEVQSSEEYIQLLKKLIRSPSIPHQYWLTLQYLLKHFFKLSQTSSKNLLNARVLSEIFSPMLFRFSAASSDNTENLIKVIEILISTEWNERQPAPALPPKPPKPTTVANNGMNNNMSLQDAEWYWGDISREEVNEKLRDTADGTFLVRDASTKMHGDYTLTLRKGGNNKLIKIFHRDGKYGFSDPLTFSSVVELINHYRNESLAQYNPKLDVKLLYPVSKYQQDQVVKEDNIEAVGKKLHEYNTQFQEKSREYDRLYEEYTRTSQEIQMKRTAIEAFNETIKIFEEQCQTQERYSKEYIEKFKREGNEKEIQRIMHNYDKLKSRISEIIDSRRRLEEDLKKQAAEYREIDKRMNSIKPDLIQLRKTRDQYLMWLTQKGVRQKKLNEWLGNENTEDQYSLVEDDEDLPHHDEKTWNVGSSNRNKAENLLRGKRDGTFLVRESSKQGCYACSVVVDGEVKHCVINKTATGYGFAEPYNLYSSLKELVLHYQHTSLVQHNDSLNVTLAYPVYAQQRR

human TOR = target: T1, human TOR (Homo sapiens, UniProt P42345); experiment: mTOR enzyme assay (DELFIA, His6-S6K substrate)
T1 construct: FLAG

PI3K-gamma = PI3K-gamma (Homo sapiens, UniProt P48736); experiment: PI3K-gamma fluorescence polarization assay; settings: PI3Kγ Avg. IC50
PI3K-gamma, sequence (P48736 whole entry, species assumed, the tested form may be a part): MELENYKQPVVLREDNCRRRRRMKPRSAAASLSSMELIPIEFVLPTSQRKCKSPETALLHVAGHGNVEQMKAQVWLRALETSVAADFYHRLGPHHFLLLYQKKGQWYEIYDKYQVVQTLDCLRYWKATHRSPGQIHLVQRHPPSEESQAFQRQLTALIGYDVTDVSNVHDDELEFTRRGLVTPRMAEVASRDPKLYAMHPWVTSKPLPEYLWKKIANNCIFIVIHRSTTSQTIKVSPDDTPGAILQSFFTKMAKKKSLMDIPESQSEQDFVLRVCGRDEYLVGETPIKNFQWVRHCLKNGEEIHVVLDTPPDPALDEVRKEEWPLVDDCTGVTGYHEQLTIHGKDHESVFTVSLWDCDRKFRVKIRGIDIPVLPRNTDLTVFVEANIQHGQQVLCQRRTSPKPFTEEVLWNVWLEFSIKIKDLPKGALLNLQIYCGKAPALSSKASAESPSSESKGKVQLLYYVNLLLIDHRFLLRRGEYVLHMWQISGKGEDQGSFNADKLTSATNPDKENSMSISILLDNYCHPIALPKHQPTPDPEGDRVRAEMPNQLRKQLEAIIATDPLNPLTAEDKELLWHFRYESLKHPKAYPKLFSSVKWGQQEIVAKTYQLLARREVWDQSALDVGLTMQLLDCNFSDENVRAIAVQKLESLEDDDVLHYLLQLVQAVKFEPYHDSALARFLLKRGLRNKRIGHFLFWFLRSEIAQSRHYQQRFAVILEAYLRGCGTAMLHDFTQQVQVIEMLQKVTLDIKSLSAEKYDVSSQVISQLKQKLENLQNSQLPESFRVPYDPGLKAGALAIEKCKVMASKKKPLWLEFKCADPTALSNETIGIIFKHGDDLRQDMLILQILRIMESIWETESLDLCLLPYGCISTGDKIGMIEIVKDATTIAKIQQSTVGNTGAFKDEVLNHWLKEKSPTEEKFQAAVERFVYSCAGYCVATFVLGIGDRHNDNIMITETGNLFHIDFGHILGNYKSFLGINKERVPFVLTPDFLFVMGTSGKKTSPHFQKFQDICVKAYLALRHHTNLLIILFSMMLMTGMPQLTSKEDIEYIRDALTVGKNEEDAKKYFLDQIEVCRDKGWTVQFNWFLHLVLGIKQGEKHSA
Method in brief: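 Reactions in 5 mM HEPES pH 7, 2.5 mM MgCl2, 25 μM ATP with 2.5 μM diC8-PI(4,5)P2 and 5 ng enzyme, 1 h at 25° C, then EDTA quench. Product detected by FP using GST-GRP1 PH domain (100 nM) and BODIPY-TMR-IP4 tracer (5 nM); final DMSO 0.8%.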

PI3K-beta = PI3K-beta (Homo sapiens, UniProt P42338); experiment: PI3K-beta fluorescence polarization assay; settings: read-out: PI3Kβ Avg. IC50
PI3K-beta, sequence (P42338 whole entry, species assumed): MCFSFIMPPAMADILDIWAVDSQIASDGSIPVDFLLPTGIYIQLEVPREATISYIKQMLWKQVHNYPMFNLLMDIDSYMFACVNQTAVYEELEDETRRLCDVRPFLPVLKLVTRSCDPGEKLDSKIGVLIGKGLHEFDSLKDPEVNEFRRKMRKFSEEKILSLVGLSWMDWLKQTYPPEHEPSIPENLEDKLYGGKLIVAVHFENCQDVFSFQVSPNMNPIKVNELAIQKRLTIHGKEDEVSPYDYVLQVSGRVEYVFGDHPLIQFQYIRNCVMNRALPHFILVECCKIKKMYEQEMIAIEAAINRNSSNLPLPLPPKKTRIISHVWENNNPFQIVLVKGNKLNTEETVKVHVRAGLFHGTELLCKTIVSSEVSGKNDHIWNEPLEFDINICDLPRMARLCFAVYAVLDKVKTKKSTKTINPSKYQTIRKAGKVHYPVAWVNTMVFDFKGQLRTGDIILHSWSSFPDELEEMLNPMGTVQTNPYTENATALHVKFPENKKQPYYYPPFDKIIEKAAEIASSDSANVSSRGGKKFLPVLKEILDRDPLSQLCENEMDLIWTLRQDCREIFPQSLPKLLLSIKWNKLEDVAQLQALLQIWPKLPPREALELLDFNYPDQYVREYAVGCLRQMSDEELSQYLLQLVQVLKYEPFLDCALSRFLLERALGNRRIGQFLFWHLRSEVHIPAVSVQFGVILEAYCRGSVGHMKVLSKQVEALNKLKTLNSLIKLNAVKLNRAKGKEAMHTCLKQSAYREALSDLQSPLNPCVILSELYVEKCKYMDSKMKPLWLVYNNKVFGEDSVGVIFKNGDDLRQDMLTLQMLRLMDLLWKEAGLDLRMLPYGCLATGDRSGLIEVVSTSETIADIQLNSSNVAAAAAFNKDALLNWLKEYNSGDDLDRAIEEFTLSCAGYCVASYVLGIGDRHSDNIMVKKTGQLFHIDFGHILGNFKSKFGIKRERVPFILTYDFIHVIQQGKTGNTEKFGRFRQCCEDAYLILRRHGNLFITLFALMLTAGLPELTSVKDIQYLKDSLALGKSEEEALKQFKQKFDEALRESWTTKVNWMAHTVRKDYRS
PI3K-beta, sequence (P27986 whole entry partner, species assumed): as the sequence (P27986 whole entry partner, species assumed) above
Experimental: PI3K-Alpha, PI3K-Beta, PI3K-Gamma, and PI3K-delta Fluorescence Polarization Assay Protocols
PI3-Kinase reactions were performed in 5 mM HEPES, pH 7, 2.5 mM MgCl2, and 25 μM ATP, with diC8-PI(4,5)P2 (Echelon, Salt Lake City Utah) as substrate. Nunc 384-well black polypropylene fluorescent plates were used for PI3K assays. Reactions were quenched by the addition of EDTA to a final concentration of 10 mM. Final reaction volumes were 10 μl. For evaluation of PI3K inhibitors, 5 ng of enzyme (PI3K-alpha, beta, gamma, or delta) and 2.5 μM of substrate was used per […] reaction volume, and inhibitor concentrations ranged from 100 μM to 20 μM; the final level of DMSO in reactions never exceeded 2%. Reactions were allowed to proceed for one hour at 25° C. After 1 hour, GST-tagged GRP1 (general receptor for phosphoinositides) PH domain fusion protein was added to a final concentration of 100 nM, and BODIPY-TMRI(1,3,4,5)P4 (Echelon) was also added to a final concentration of 5 nM. Final sample volumes were 25 μl with a final DMSO concentration of 0.8%. Assay Plates were read on Perkin-Elmer Envision plate readers with appropriate filters for Tamra [BODIPY-TMRI(1,3,4,5)P4]. Data obtained were used to calculate enzymatic activity and enzyme inhibition by inhibitor compounds.

[1] = read-out: mTOR Kinase Avg. IC50

PI3K-delta, sequence (O00329 whole entry, species assumed): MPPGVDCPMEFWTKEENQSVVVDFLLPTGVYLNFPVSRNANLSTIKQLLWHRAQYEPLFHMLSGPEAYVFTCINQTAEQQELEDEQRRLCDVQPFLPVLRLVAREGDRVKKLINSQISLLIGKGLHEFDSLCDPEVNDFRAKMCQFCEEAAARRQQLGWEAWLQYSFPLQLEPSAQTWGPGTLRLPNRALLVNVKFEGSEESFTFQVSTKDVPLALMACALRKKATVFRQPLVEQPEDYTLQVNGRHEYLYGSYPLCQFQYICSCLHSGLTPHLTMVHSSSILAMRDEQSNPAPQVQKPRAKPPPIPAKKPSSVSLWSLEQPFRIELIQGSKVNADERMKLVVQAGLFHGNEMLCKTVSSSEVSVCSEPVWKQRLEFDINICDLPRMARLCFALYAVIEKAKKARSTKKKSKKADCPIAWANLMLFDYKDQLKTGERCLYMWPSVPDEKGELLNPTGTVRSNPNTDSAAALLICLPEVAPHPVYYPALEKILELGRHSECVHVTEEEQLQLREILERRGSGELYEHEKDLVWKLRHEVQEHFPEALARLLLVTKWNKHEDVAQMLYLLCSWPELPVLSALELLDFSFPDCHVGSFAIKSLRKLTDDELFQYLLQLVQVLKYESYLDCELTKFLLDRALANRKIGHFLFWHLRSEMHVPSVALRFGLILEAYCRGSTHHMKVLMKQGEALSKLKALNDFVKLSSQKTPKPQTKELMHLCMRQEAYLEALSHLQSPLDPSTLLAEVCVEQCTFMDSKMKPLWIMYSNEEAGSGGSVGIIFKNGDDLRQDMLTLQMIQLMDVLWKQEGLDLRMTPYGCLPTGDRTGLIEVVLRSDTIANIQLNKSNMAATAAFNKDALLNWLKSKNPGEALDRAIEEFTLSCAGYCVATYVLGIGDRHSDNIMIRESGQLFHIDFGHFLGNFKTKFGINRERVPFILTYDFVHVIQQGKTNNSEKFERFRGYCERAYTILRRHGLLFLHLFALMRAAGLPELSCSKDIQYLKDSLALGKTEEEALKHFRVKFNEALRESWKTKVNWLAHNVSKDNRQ
PI3K-delta, sequence (P27986 whole entry partner, species assumed): as the sequence (P27986 whole entry partner, species assumed) above

| Structure (SMILES) | pIC50 (PI3K-delta; read-out: PI3Kδ Avg. IC50) | pIC50 (PI3K-alpha; read-out: PI3Kα Avg. IC50) | pIC50 (human TOR; [1]) | pIC50 (PI3K-gamma) | pIC50 (PI3K-beta) | pIC50 (PI3K-alpha; PI3Kα Avg. IC50) | pIC50 (human TOR; mTOR Kinase Avg. IC50) | pIC50 (PI3K-delta) |
| --- | --- | --- | --- | --- | --- | --- | --- | --- |
| COc1ccc2c(c1)c(C=C1Oc3cc(O)cc(O)c3C1=O)c(C)n2CCCN1CCC(N(C)C)C1 (stereo not drawn) [Example 104, 2-[(1-{3-[3-(dimethylamino)pyrrolidin-1-yl]propyl}-5-methoxy-2-methyl-1H-indol-3-yl)methylene]-4,6-dihydroxy-1-benzofuran-3(2H)-one] | 8.64 | 8.24 | 6.89 | 6.79 | 7.72 |  |  |  |
| COc1ccc2c(c1)c(C=C1Oc3cc(O)cc(O)c3C1=O)c(C)n2CCCN1CCN(CCN2CCOCC2)CC1 [Example 105, 4,6-dihydroxy-2-[(5-methoxy-2-methyl-1-{3-[4-(2-morpholin-4-ylethyl)piperazin-1-yl]propyl}-1H-indol-3-yl)methylene]-1-benzofuran-3(2H)-one] | 8.70 | 8.02 | 6.85 | 6.14 | 7.30 |  |  |  |
| COc1ccc2c(c1)c(C=C1Oc3cc(O)cc(O)c3C1=O)c(C)n2CCCN(C)C [Example 106, 2-({1-[3-(dimethylamino)propyl]-5-methoxy-2-methyl-1H-indol-3-yl}methylene)-4,6-dihydroxy-1-benzofuran-3(2H)-one] | 8.70 | 8.28 | 6.93 | 6.39 | 7.76 |  |  |  |
| COc1ccc2c(c1)c(C=C1Oc3cc(O)cc(O)c3C1=O)c(C)n2CCN1CCOCC1 [Example 107, 4,6-dihydroxy-2-{[5-methoxy-2-methyl-1-(2-morpholin-4-ylethyl)-1H-indol-3-yl]methylene}-1-benzofuran-3(2H)-one] | 8.24 |  | > 7.60 | 6.81 | 6.95 | 7.95 |  |  |
| COc1ccc2c(c1)c(C=C1Oc3cc(O)cc(O)c3C1=O)c(C)n2CCN1CCN(CCO)CC1 [Example 109, 4,6-dihydroxy-2-[(1-{2-[4-(2-hydroxyethyl)piperazin-1-yl]ethyl}-5-methoxy-2-methyl-1H-indol-3-yl)methylene]-1-benzofuran-3(2H)-one] | 8.55 | 8.37 | > 7.64 | 6.49 | 7.74 |  |  |  |
| COc1ccc2c(c1)c(C=C1Oc3cc(O)cc(O)c3C1=O)c(C)n2CCN(C)C [Example 110, 2-({1-[2-(dimethylamino)ethyl]-5-methoxy-2-methyl-1H-indol-3-yl}methylene)-4,6-dihydroxy-1-benzofuran-3(2H)-one] | 8.19 | 8.03 | 7.76 | 6.55 | 7.49 |  |  |  |
| COc1ccc2c(c1)c(C=C1Oc3cc(O)cc(O)c3C1=O)cn2CCN1CCN(CCO)CC1 [Example 111, 4,6-dihydroxy-2-[(1-{2-[4-(2-hydroxyethyl)piperazin-1-yl]ethyl}-5-methoxy-1H-indol-3-yl)methylene]-1-benzofuran-3(2H)-one] | 7.67 | 7.44 | 6.67 | 6.01 | 6.77 |  |  |  |
| COc1ccc2c(c1)c(C=C1Oc3cc(O)cc(O)c3C1=O)cn2CCCN1CCOCC1 [Example 112, 4,6-dihydroxy-2-{[5-methoxy-1-(3-morpholin-4-ylpropyl)-1H-indol-3-yl]methylene}-1-benzofuran-3(2H)-one] | 8.22 |  |  | 6.19 | 6.74 | 7.38 | 6.37 |  |
| COc1ccc2c(c1)c(C=C1Oc3cc(O)cc(O)c3C1=O)cn2CCCN1CCN(CCO)CC1 [Example 113, 4,6-dihydroxy-2-[(1-{3-[4-(2-hydroxyethyl)piperazin-1-yl]propyl}-5-methoxy-1H-indol-3-yl)methylene]-1-benzofuran-3(2H)-one] | 8.15 |  | 5.78 | 5.87 | 6.61 | 7.43 |  |  |
| COc1ccc2c(c1)c(C=C1Oc3cc(O)cc(O)c3C1=O)cn2CCCN(C)C [Example 114, 2-({1-[3-(dimethylamino)propyl]-5-methoxy-1H-indol-3-yl}methylene)-4,6-dihydroxy-1-benzofuran-3(2H)-one] | 7.94 |  | 5.67 | 5.62 | 6.65 | 7.40 |  |  |
| COc1ccc2c(c1)c(C=C1Oc3cc(O)cc(O)c3C1=O)cn2CCCCN1CCOCC1 [Example 115, 4,6-dihydroxy-2-{[5-methoxy-1-(4-morpholin-4-ylbutyl)-1H-indol-3-yl]methylene}-1-benzofuran-3(2H)-one] | 8.07 | 7.41 | 6.01 | 5.93 | 6.87 |  |  |  |
| COc1ccc2c(c1)c(C=C1Oc3cc(O)cc(O)c3C1=O)cn2CCCCN(C)C [Example 116, 2-({1-[4-(dimethylamino)butyl]-5-methoxy-1H-indol-3-yl}methylene)-4,6-dihydroxy-1-benzofuran-3(2H)-one] | 8.30 | 7.43 | 5.85 | 5.87 | 6.93 |  |  |  |
| COC(=O)c1ccc2[nH]cc(C=C3Oc4cc(O)cc(O)c4C3=O)c2c1 [Example 166, methyl 3-[(4,6-dihydroxy-3-oxo-1-benzofuran-2(3H)-ylidene)methyl]-1H-indole-5-carboxylate] | 7.23 | 7.55 | 5.77 | 6.75 | 7.34 |  |  |  |
| COc1cc2c(C=C3Oc4cc(O)cc(O)c4C3=O)c(C)[nH]c2cc1C [Example 184, 4,6-dihydroxy-2-[(5-methoxy-2,6-dimethyl-1H-indol-3-yl)methylene]-1-benzofuran-3(2H)-one] | 6.71 | 6.99 | 6.72 | 6.26 | 6.81 |  |  |  |
| COc1cc2c(C=C3Oc4cc(O)cc(O)c4C3=O)c(C)n(C)c2cc1C [Example 185, 4,6-dihydroxy-2-[(5-methoxy-1,2,6-trimethyl-1H-indol-3-yl)methylene]-1-benzofuran-3(2H)-one] | 7.42 | 7.49 | 6.89 | 6.39 | 7.02 |  |  |  |
| COc1ccc2c(c1)c(/C=C1\Oc3cc(O)cc(O)c3C1=O)c(C1CC1)n2CCN1CCN(C)CC1 [Example 302, (2Z)-2-({2-Cyclopropyl-5-methoxy-1-[2-(4-methylpiperazin-1-yl)ethyl]-1H-indol-3-yl}methylene)-4,6-dihydroxy-1-benzofuran-3(2H)-one] | > 8.60 | 7.77 | 6.52 | 6.12 | 7.85 |  |  |  |
| COc1ccc2c(c1)c(/C=C1\Oc3cc(O)ccc3C1=O)c(C)n2CCN1CCN(C)CC1 [Example 303, (2Z)-6-Hydroxy-2-({5-methoxy-2-methyl-1-[2-(4-methylpiperazin-1-yl)ethyl]-1H-indol-3-yl}methylene)-1-benzofuran-3(2H)-one] | > 8.70 | 8.66 | 8.71 | 7.15 | 8.46 |  |  |  |
| COc1ccc2[nH]c(-c3ccccc3)c(/C=C3\Oc4cccc(O)c4C3=O)c2c1 [Example 304, (2Z)-4-Hydroxy-2-[(5-methoxy-2-phenyl-1H-indol-3-yl)methylene]-1-benzofuran-3(2H)-one] | 7.77 | 7.27 | 7.21 | 7.19 | 6.89 |  |  |  |
| COc1ccc2c(c1)c(/C=C1\Oc3cc(O)cc(O)c3C1=O)c(C)n2CCCN(C)C [Example 305, (2Z)-2-({1-[3-(Dimethylamino)propyl]-5-methoxy-2-methyl-1H-indol-3-yl}methylene)-4,6-dihydroxy-1-benzofuran-3(2H)-one] |  |  | 6.69 | 6.64 | 7.55 | 8.30 |  | 8.30 |
| COc1ccc2c(c1)c(/C=C1\Oc3cc(O)cc(O)c3C1=O)c(C(=O)N(C)C)n2CCN1CCC(O)C1 (stereo not drawn) [Example 306, 3-[(Z)-(4,6-Dihydroxy-3-oxo-1-benzofuran-2(3H)-ylidene)methyl]-1-[2-(3-hydroxypyrrolidin-1-yl)ethyl]-5-methoxy-N,N-dimethyl-1H-indole-2-carboxamide] | 8.52 | 8.07 | 6.89 | 6.84 | 7.69 |  |  |  |
| COc1ccc2c(c1)c(/C=C1\Oc3cc(O)ccc3C1=O)c(C)n2CCCN(C)C [Example 307, (2Z)-2-({1-[3-(Dimethylamino)propyl]-5-methoxy-2-methyl-1H-indol-3-yl}methylene)-6-hydroxy-1-benzofuran-3(2H)-one] | 8.60 | 7.73 | 5.43 | 5.74 | 7.14 |  |  |  |
